The results in this text go back to patent US10870647B2, “Imidazopyridine derivative, method for preparing same, and pharmaceutical composition containing same as active ingredient for preventing or treating cancer” (DAEGU-GYEONGBUK MEDICAL INNOVATION FOUNDATION, priority 2016, dated 2020).

What all share (test): Kinase selectivity, scanMAX Kinase assay panel (DiscoverX), % control at 1 uM
Common to all, as to assay type: binding

The target in experiment [1] is T1, scanMAX Kinase assay panel (Homo sapiens, UniProt O14965).
T1 construct: purchased DiscoverX
T1 sequence (O14965 1-403): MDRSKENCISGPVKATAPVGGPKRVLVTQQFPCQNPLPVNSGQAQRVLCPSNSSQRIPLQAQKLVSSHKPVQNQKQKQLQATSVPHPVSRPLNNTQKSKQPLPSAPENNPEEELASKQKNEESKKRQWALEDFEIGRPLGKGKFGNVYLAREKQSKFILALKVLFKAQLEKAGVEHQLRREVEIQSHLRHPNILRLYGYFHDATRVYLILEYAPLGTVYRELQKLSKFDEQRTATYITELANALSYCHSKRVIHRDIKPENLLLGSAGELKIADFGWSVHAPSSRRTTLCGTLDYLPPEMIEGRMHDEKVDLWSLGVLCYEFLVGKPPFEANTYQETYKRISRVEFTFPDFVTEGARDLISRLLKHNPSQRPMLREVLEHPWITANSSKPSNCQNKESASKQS
To be noted: AURKA; 1 uM; read-out: Percent Control (%). In short, it runs like this:
(§1)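 A single concentration of 1 uM, in DMSO, is applied across the kinase panel. Activity against an individual enzyme is assigned where % control is less than 35.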

Experiment [2] has as its target T2, scanMAX Kinase assay panel (Homo sapiens, UniProt O60285).
T2 construct: purchased DiscoverX
T2 sequence (O60285 1-661): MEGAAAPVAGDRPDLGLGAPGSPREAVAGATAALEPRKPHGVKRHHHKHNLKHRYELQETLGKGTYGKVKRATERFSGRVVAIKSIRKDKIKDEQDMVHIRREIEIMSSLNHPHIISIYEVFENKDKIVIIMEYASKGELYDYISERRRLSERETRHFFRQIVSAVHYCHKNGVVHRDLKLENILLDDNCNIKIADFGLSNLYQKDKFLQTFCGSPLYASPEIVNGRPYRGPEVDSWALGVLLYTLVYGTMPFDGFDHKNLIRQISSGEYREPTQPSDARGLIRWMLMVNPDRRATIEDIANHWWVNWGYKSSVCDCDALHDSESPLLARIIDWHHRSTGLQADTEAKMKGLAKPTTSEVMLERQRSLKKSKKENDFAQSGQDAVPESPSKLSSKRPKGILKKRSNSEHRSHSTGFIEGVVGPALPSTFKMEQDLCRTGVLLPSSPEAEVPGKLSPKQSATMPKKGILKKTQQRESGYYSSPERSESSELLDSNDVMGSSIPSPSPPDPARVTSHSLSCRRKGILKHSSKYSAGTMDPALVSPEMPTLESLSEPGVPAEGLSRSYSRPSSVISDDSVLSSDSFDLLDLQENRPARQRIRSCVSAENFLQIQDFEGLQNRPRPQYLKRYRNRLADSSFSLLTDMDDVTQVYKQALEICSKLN
To be noted: ARK5; 1 uM; read-out: Percent Control (%). In short, it runs like this: as §1

Experiment [3] concerns the target T3, scanMAX Kinase assay panel (Homo sapiens, UniProt P04629).
T3 construct: purchased DiscoverX
To be noted: TRKA; 1 uM; read-out: Percent Control (%). An outline of the steps:
as §1

Experiment [4] concerns the target T4, scanMAX Kinase assay panel (Homo sapiens, UniProt P27361).
T4 construct: purchased DiscoverX
To be noted: ERK1; 1 uM; read-out: Percent Control (%). In short, it runs like this: as §1

Experiment [5] addresses T5, scanMAX Kinase assay panel (Homo sapiens, UniProt P42685).
T5 construct: purchased DiscoverX
To be noted: FRK; 1 uM; read-out: Percent Control (%). An outline of the steps: as §1

Experiment [6] deals with T6, scanMAX Kinase assay panel (Homo sapiens, UniProt Q02750).
T6 construct: purchased DiscoverX
T6 sequence (Q02750 whole entry): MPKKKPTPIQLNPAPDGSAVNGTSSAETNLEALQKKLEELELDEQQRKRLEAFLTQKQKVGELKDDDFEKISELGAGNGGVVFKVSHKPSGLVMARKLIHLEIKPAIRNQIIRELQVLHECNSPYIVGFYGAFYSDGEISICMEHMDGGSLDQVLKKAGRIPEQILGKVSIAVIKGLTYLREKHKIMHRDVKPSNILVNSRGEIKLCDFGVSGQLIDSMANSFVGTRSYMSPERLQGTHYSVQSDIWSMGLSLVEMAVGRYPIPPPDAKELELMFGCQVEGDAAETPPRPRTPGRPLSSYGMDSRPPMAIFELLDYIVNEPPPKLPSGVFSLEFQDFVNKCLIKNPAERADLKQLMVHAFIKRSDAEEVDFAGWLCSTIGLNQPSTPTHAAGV
To be noted: MEK1; 1 uM; read-out: Percent Control (%). In short, it runs like this: as §1

For experiment [7], the target named is T7, scanMAX Kinase assay panel (Homo sapiens, UniProt Q14164).
T7 construct: purchased DiscoverX
T7 sequence (Q14164 1-716): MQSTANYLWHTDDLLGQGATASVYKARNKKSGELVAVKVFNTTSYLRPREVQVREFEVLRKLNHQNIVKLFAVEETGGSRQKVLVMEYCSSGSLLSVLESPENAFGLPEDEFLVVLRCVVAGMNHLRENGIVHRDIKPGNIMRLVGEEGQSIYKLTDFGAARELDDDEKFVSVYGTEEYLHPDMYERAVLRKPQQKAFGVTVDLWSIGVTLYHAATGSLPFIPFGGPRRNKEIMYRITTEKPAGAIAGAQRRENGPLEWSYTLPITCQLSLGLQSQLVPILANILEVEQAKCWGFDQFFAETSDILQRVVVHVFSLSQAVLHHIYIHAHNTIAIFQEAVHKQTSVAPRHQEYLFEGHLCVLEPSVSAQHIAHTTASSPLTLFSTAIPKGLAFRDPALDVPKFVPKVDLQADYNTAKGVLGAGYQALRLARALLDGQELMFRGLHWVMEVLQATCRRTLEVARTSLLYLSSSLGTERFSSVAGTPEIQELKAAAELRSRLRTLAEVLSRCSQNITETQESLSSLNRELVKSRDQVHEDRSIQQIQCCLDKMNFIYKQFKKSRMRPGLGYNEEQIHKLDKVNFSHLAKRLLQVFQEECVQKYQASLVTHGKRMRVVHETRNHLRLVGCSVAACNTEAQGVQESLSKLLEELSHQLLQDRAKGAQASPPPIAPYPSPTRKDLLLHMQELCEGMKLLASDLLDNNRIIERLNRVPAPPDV
To be noted: IKK-epsilon; 1 uM; read-out: Percent Control (%). In short, it runs like this: as §1

T3 sequence (P04629 33-796): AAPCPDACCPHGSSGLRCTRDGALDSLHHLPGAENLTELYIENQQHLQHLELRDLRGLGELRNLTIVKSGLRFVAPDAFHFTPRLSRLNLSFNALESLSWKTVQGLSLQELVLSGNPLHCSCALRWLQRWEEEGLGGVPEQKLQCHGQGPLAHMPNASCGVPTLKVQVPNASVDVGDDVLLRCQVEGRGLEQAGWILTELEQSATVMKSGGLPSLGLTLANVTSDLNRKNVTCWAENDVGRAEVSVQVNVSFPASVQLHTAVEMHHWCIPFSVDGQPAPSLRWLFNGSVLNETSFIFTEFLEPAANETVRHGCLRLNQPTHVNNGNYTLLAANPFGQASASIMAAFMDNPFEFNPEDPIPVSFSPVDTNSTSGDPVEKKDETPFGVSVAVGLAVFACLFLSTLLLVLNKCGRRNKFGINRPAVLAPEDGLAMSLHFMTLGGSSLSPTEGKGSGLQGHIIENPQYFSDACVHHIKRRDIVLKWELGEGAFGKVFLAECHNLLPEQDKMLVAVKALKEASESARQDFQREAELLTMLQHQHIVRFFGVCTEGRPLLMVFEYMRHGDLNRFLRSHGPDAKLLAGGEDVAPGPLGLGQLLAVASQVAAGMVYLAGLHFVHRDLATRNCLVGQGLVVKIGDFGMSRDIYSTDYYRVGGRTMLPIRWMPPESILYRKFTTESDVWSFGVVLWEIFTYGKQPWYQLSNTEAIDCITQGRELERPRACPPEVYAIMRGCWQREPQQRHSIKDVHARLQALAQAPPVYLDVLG
T4 sequence (P27361 whole entry): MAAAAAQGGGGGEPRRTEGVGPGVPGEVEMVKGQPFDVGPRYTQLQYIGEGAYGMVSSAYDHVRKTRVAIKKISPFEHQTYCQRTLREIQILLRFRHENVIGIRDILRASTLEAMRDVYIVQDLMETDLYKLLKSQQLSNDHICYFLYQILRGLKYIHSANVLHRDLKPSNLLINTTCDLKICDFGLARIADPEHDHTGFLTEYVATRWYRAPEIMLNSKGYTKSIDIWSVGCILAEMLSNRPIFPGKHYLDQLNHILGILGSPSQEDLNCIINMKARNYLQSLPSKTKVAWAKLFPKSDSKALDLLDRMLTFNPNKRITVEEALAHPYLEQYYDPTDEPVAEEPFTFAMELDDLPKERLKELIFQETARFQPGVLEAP
T5 sequence (P42685 whole entry): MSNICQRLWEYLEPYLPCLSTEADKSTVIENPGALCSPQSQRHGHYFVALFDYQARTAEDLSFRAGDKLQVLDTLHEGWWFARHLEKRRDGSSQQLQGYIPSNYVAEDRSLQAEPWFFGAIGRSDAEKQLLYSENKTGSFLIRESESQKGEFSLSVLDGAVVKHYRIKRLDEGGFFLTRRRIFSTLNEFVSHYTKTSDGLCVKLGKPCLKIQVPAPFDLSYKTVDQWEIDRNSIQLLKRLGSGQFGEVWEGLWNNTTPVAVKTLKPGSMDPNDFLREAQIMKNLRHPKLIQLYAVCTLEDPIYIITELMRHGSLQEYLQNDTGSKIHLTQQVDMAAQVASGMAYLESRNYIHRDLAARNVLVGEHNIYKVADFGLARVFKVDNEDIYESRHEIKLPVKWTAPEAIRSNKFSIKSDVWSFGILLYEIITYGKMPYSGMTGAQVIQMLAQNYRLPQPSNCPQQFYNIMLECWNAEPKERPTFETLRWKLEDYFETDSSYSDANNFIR

As to `Cc1ccc(C(=O)Nc2ccc(CN3CCN(C)CC3)c(C(F)(F)F)c2)cc1C#Cc1cnc2c(Nc3cnn(C)c3)cccn12` [Example 1, 4-methyl-3-((8-((1-methyl-1H-pyrazol-4-yl)amino)imidazo[1,2-a]pyridin-3-yl)ethynyl)-N-(4-((4-methylpiperazin-1-yl)methyl)-3-(trifluoromethyl)phenyl)benzamide], the remaining binding at 1 µM in experiment [1] was 72%; in experiment [2], 99%; in experiment [3], 0%; in experiment [4], 87%; in experiment [5], 2%; in experiment [6], 100%. Also, the remaining binding at 1 µM in experiment [7] is 66%.

On to `Cc1cn(-c2cc(NC(=O)c3ccc(C)c(C#Cc4cnc5c(Nc6cnn(C)c6)cccn45)c3)cc(C(F)(F)F)c2)cn1` [Example 12, 4-methyl-N-(3-(4-methyl-1H-imidazol-1-yl)-5-(trifluoromethyl)phenyl)-3-((8-((1-methyl-1H-pyrazol-4-yl)amino)imidazo[1,2-a]pyridin-3-yl)ethynyl)benzamide], for which the remaining binding at 1 µM stood at 100% in experiment [1]; 100% in experiment [2]; 1% in experiment [3]; 100% in experiment [4]; 14% in experiment [5]; 100% in experiment [6]. In addition, the remaining binding at 1 µM in experiment [7] came to 100%.

In the case of `Cc1ccc(NC(=O)C2(C(=O)Nc3ccc(F)cc3)CC2)cc1C#Cc1cnc2c(Nc3cnn(C(C)C)c3)cccn12` [Example 78], the remaining binding at 1 µM in experiment [1] was 100%; in experiment [2] it was 94%; in experiment [3], 100%; in experiment [4], 100%; in experiment [5], 69%; in experiment [6], 100%. Further, in experiment [7], the remaining binding at 1 µM worked out at 100%.
